In one test the target is T1, TNIK (Homo sapiens, UniProt Q9UKE5).
T1 construct: purchased Eurofins (Kinase Profiler service protocol)
The test can be described thus: TNIK enzymatic assay (radiometric 33P-ATP filter assay). It is filed as biochemical. To be noted: second table (TNIK, MAP4K4, Collagen Production Data); read-out: TNIK_IC50. On the procedure: The compounds were studied for function as TNIK inhibitors to generate the data of Table 1. […] (specific activity and concentration as required). The reaction is initiated by the addition of the Mg/ATP mix. After incubation for 40 minutes at room temperature, the reaction is stopped by the addition of phosphoric acid to a concentration of 0.5%.

Test [1] concerns Human hepatic stellate cell LX-2. The test can be described thus: LX-2 fibrosis assay, collagen production (Western blot). In kind it is cell-based. To be noted: LX-2 cells, stimulated with 4 ng/mL TGF-b for 48 hours. The procedure:
Human hepatic stellate cell LX-2 were grown in DMEM (Invitrogen, 11960) supplied with 1% MEM Non-Essential Amino Acids (Invitrogen, 11140-050), 2% fetal bovine serum (Hyclone, SV30087.03), Penicillin (100 U/mL)-streptomycin (100 μg/mL) (Millipore, TMS-AB2-C) and 2 mM L-Glutamine (Invitrogen, 25030-001). After the cells grew in 12-well plates for 24 hours, the cell culture medium was changed to the same as above except using 0.4% fetal bovine serum. After 20 hour growth in the reduced serum medium, the cells were treated with indicated doses of compounds for 30 minutes. Subsequently, the cells were stimulated with 4 ng/mL TGF-b (R&D Systems, 240-B-002) for 48 hours. The cells were rinsed twice with DPBS before being harvested with 100 μL RIPA buffer (Sigma, R0278) supplemented with protease inhibitor cocktail (Roche, 04693132001) at 4° C. The total protein in each sample was quantified using BCA Protein Assay Kit (Pierce™, 23227) and equal amount of total protein of each sample was subject to Western blot analysis. Antibodies used were mouse anti-α-Actin (SPM332) ([…]), mouse anti-CTGF (E5) (sc-365970), and mouse anti-collagen α1 (3G3) (sc-293182), from Santa Cruz Biotechnologies; and mouse anti-GAPDH (6C5) (EMD Millipore, MAB374).

The next test deals with MAP4K4 (h) (Homo sapiens, UniProt O95819). Put plainly: MAP4K4 kinase assay (radiometric 33P-ATP filter assay). In kind it is biochemical. The note with it: read-out: MAP4K4_IC50. The procedure: (specific activity and concentration as required). The reaction is initiated by the addition of the Mg/ATP mix. After incubation for 40 minutes at room temperature, the reaction is stopped by the addition of phosphoric acid to a concentration of 0.5%.

As a reminder, the EC50 is the midpoint of the concentration-response curve. A low value points to an effect from little substance.

Chain of MAP4K4 (h) (O95819 whole entry): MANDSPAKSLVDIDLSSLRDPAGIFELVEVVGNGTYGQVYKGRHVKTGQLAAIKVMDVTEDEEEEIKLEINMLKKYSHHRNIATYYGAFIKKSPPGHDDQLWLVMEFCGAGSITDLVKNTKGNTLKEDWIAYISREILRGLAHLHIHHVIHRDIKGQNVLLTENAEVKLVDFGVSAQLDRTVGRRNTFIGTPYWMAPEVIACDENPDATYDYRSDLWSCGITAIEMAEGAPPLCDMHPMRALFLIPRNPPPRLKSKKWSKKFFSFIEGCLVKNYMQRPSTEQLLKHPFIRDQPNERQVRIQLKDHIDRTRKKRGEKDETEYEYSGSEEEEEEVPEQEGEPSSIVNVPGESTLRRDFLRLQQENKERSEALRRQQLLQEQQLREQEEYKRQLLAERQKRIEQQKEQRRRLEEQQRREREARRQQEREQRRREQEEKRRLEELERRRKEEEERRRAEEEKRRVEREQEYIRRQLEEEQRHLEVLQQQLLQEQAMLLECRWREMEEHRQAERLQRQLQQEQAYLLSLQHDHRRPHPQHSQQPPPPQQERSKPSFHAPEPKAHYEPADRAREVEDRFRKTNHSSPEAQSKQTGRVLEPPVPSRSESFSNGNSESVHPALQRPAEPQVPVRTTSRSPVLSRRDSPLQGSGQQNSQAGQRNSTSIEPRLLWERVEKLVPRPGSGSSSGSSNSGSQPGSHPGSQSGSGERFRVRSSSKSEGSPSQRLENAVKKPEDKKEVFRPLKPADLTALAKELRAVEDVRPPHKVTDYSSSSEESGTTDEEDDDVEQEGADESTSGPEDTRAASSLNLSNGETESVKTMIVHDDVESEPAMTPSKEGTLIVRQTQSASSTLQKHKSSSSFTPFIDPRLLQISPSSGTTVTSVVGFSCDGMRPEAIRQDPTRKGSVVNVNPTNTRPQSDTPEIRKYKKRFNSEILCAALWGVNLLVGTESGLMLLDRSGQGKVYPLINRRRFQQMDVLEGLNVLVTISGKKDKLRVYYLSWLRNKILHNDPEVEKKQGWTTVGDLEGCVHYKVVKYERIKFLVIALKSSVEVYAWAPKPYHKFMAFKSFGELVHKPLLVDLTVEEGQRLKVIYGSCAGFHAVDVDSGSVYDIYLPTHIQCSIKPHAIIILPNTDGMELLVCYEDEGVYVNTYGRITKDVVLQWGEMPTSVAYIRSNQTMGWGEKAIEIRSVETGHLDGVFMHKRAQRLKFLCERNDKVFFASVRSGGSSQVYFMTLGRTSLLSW
T1 sequence (Q9UKE5 whole entry): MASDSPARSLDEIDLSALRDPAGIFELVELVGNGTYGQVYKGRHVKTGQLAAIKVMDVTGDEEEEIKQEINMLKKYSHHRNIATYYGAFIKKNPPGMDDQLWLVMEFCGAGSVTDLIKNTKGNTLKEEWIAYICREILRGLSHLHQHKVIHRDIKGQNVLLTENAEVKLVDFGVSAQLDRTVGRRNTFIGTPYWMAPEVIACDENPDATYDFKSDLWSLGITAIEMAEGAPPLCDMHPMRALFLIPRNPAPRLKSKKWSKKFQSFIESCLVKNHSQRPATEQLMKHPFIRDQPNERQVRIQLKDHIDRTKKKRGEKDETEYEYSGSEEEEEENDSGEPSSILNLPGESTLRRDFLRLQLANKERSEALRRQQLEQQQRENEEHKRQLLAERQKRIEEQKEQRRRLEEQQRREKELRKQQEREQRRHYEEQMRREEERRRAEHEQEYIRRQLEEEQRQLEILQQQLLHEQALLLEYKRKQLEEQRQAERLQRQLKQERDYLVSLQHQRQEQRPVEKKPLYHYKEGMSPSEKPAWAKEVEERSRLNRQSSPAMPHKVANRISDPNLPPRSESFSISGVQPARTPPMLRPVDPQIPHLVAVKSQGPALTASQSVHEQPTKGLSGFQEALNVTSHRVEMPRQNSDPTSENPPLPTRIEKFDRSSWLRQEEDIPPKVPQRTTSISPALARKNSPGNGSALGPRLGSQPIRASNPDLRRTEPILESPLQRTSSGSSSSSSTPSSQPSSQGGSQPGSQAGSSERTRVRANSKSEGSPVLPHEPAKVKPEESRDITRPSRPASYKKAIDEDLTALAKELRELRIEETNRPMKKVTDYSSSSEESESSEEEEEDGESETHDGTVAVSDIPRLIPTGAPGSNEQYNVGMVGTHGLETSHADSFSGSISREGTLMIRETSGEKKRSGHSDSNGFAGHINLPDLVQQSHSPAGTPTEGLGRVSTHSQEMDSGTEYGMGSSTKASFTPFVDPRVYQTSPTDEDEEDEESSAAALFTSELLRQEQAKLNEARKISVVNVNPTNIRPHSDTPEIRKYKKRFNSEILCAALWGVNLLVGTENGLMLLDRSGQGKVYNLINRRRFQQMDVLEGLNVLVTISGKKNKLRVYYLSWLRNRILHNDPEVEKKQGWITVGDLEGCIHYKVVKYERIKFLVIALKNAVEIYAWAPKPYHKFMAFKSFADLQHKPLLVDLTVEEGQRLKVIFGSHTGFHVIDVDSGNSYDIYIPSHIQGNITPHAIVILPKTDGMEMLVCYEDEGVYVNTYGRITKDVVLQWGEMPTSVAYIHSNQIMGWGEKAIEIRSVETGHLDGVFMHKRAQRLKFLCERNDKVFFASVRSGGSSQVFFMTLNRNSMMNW

Consider `O=C(Nc1ccncc1F)c1ccc(-c2c(-c3ccc(F)cc3)ncn2[C@@H]2COC[C@H]2F)o1` (racemic) [Compound A-54, rac-5-(4-(4-fluorophenyl)-1-((3R,4S)-4-fluorotetrahydrofuran-3-yl)-1H-imidazol-5-yl)-N-(3-fluoropyridin-4-yl)furan-2-carboxamide], for which the IC50 at TNIK came to 60.7 nM; at MAP4K4 (h) it was 36.6 nM. For the same compound, the midpoint of the response in test [1] (LX-2, 48 h), the EC50, lay at 0.983 µM.

`CN1CCN(c2ccc(NC(=O)c3ccc(-c4c(-c5ccc(F)cc5)ncn4C4CCCC4)o3)c(F)c2)CC1` [Compound A-52, 4-(4-(5-(1-cyclopentyl-4-(4-fluorophenyl)-1H-imidazol-5-yl)furan-2-carboxamido)-3-fluorophenyl)-1-methylpiperazin-1-ium] showed an EC50 in test [1] of 0.042 µM. In other words, the double-digit nanomolar range.

`O=C(Nc1ccncc1F)c1ccc(-c2c(-c3ccc(F)cc3)ncn2C2COCC2F)o1` (centres unmarked) [Compound A-53, 5-(4-(4-fluorophenyl)-1-(4-fluorotetrahydrofuran-3-yl)-1H-imidazol-5-yl)-N-(3-fluoropyridin-4-yl)furan-2-carboxamide] registered an EC50 in test [1] (LX-2, 48 h) of 1.98 µM.

For the origin of these results see US12410156B2, “Kinase inhibitors” (Insilico Medicine IP Limited, priority 2019, dated 2025).
